We go through 14 molecules from PubChem BioAssay (NCI).

Among the test systems are HCC-2998 colon; SK-OV-3 ovarian; U251 CNS; NCI-H23 lung; K-562 leukemia; MOLT-4 leukemia; MDA-MB-435; EKVX NSCLC; UO-31 renal; HOP-92 NSCLC; ACHN renal; NCI-H522 lung; OVCAR-5 ovarian; NCI/ADR-RES ovarian; SF-539 CNS; UACC-257 melanoma.
Holding throughout (test): growth of human tumour cells (NCI), 48 h

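These data come from cells grown in 96-well plates and exposed to compound for 48 hours at five concentrations. TGI: total growth inhibition.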

Regarding `C=C1C2C[C@@H]3O[C@H]4C[C@H]5O[C@@]6(C[C@@H]7O[C@]8(C[C@H](C)[C@@H]9O[C@@H]%10CC(C=O)O[C@@H]%10C[C@@H]9O8)C[C@H](C)[C@@H]7O6)C[C@H]5O[C@H]4[C@H](C)[C@H]3OC(=O)C[C@H]3CC[C@@H]4OC5[C@H]6O[C@]7(CC[C@H]8CC(=C)[C@H](CC[C@@H](C[C@H]1C)O2)O8)CC6O[C@@H]5[C@@H](O7)[C@H]4O3` (some centres not stated), the TGI in the assay on HCC-2998 colon was more than 1 µM; with SK-OV-3 ovarian, more than 1 µM; with U251 CNS, more than 1 µM; in the assay on NCI-H23 lung, 0.00195 µM; with K-562 leukemia, more than 1 µM; in the assay with MOLT-4 leukemia it was more than 1 µM. Also, the TGI in the assay on MDA-MB-435 was less than 0.0001 µM; in the assay on EKVX NSCLC, more than 1 µM; in the assay with UO-31 renal, more than 1 µM; in the assay with HOP-92 NSCLC, more than 0.42 µM; in the assay on ACHN renal, more than 1 µM; in the assay with NCI-H522 lung it was less than 0.0001 µM.
`CCOC(=O)c1cc(C2=CCNC2=O)c(-c2cc(C)no2)[nH]1`: the TGI in the assay on HCC-2998 colon, with SK-OV-3 ovarian, in the assay on OVCAR-5 ovarian, in the assay on U251 CNS, in the assay with NCI-H23 lung and in the assay on K-562 leukemia was more than 100 µM throughout. Also, the TGI with MOLT-4 leukemia, with MDA-MB-435, with EKVX NSCLC, in the assay with UO-31 renal, in the assay on NCI/ADR-RES ovarian and in the assay with ACHN renal was more than 100 µM throughout. Further, the TGI in the assay on SF-539 CNS was more than 100 µM; in the assay on NCI-H522 lung, 46.6 µM; with UACC-257 melanoma, more than 100 µM.
Regarding `CN1CN(c2ccccc2)C2(CCN(C3Nc4ccccc4O3)CC2)C1=O` (configuration not stated), the TGI in the assay on SK-OV-3 ovarian was 48.1 µM; in the assay on OVCAR-5 ovarian, 48.2 µM; in the assay with U251 CNS, 33.3 µM; in the assay with NCI-H23 lung, 54.9 µM; in the assay on K-562 leukemia it was more than 100 µM; in the assay on MOLT-4 leukemia it was 92.2 µM. The TGI with MDA-MB-435 turned out to be 42.1 µM; with UO-31 renal, 69.8 µM; in the assay on NCI/ADR-RES ovarian, 56.1 µM; in the assay with ACHN renal, 55.9 µM; with SF-539 CNS, 28.9 µM; in the assay with NCI-H522 lung, 39.2 µM. In the assay on UACC-257 melanoma, this molecule had a TGI of 33.7 µM.
For `C=C[C@]1(C)CC(=O)C(C(C)C=O)[C@]12C(=O)Oc1cccc(C)c1C2=O` (some centres not stated), the TGI with HCC-2998 colon was found to be 31.7 µM; in the assay on SK-OV-3 ovarian, 33.1 µM; in the assay on OVCAR-5 ovarian, 30.6 µM; with U251 CNS, 28.3 µM; in the assay on NCI-H23 lung, 33.2 µM; in the assay on K-562 leukemia, 53.2 µM. Also, the TGI in the assay on MOLT-4 leukemia was more than 100 µM; in the assay on MDA-MB-435, 29.3 µM; in the assay with EKVX NSCLC it was 40.2 µM; in the assay on UO-31 renal, 28.9 µM; in the assay with ACHN renal it was 29 µM; with SF-539 CNS it was 31 µM. Also, the TGI with NCI-H522 lung amounted to 18.2 µM; in the assay on UACC-257 melanoma it was 33.2 µM.
On to `CC(=O)c1cc(CC2Cc3cc4c(cc3C2=O)CCC4)cc2c1CCC2` (configuration not stated), for which the TGI in the assay on HCC-2998 colon, with SK-OV-3 ovarian, with OVCAR-5 ovarian, in the assay with U251 CNS, in the assay with NCI-H23 lung and in the assay on K-562 leukemia was more than 100 µM throughout. Besides, the TGI was 90.5 µM in the assay with MOLT-4 leukemia; more than 100 µM in the assay on MDA-MB-435; more than 100 µM in the assay on EKVX NSCLC; more than 100 µM in the assay with UO-31 renal; more than 100 µM in the assay on NCI/ADR-RES ovarian; more than 100 µM in the assay with ACHN renal. Further, the TGI in the assay on SF-539 CNS, in the assay on NCI-H522 lung and in the assay with UACC-257 melanoma was more than 100 µM throughout.
Regarding `Fc1cc(C2=Nn3c(CNc4ccc(Cl)cc4)nnc3S/C2=C\c2ccc(-c3ccc(Cl)cc3)o2)c(Cl)cc1Cl`, the TGI in the assay with HCC-2998 colon is more than 100 µM; in the assay on OVCAR-5 ovarian, 98.5 µM; in the assay with U251 CNS, 57.6 µM; with NCI-H23 lung, more than 100 µM; with K-562 leukemia, more than 100 µM; in the assay with MOLT-4 leukemia, more than 100 µM. The TGI was more than 100 µM in the assay on MDA-MB-435; 67.8 µM in the assay with EKVX NSCLC; more than 100 µM in the assay with UO-31 renal; 27.5 µM in the assay with NCI/ADR-RES ovarian; more than 100 µM in the assay with ACHN renal; more than 100 µM with NCI-H522 lung. Moreover, the TGI with UACC-257 melanoma is more than 100 µM.
Regarding `O=c1oc2ccc3ccccc3c2cc1-c1nc(-c2ccc([N+](=O)[O-])cc2)n[nH]1`, the TGI with HCC-2998 colon was more than 100 µM; with SK-OV-3 ovarian, 52.7 µM; in the assay on OVCAR-5 ovarian it was more than 100 µM; with U251 CNS, more than 100 µM; in the assay on NCI-H23 lung it was 45.8 µM; with K-562 leukemia, more than 100 µM. Besides, the TGI in the assay on MOLT-4 leukemia, in the assay with MDA-MB-435, in the assay on EKVX NSCLC, in the assay with UO-31 renal, in the assay on NCI/ADR-RES ovarian and in the assay with ACHN renal was more than 100 µM throughout. In addition, the TGI in the assay on SF-539 CNS was 39.4 µM; with NCI-H522 lung, more than 100 µM; in the assay with UACC-257 melanoma, more than 100 µM.
Consider `Cc1ccc(N=NN(C)C(C)C(O)Cc2ccccc2)cc1` (configuration not stated), for which the TGI in the assay on HCC-2998 colon, in the assay with SK-OV-3 ovarian, in the assay on OVCAR-5 ovarian, in the assay with U251 CNS, in the assay on NCI-H23 lung and in the assay on K-562 leukemia was more than 100 µM in each case. The TGI in the assay with MOLT-4 leukemia, with MDA-MB-435, in the assay on EKVX NSCLC, with UO-31 renal, with NCI/ADR-RES ovarian and in the assay with ACHN renal was more than 100 µM in each case. The molecule further came in with a TGI in the assay on UACC-257 melanoma of more than 100 µM.
For the molecule `Cc1cn(CC2=NC3CCCCC3N2)c(=O)[nH]c1=O` (configuration not stated), the TGI with HCC-2998 colon, in the assay on SK-OV-3 ovarian, with OVCAR-5 ovarian, in the assay on U251 CNS, with NCI-H23 lung and in the assay on K-562 leukemia was more than 100 µM each time. Moreover, the TGI in the assay with MOLT-4 leukemia, with EKVX NSCLC, with UO-31 renal, with HOP-92 NSCLC, in the assay on NCI/ADR-RES ovarian and in the assay with ACHN renal was more than 100 µM throughout. For the same molecule, the TGI in the assay on NCI-H522 lung and in the assay with UACC-257 melanoma was more than 100 µM throughout.
Turning to `Fc1ccc(Oc2nc3ccccc3nc2-c2ccccc2)cc1`, the TGI in the assay with HCC-2998 colon, with SK-OV-3 ovarian, with OVCAR-5 ovarian, in the assay on U251 CNS, with NCI-H23 lung and in the assay with K-562 leukemia was more than 100 µM throughout. The TGI with MOLT-4 leukemia, with MDA-MB-435, with EKVX NSCLC, in the assay with UO-31 renal, in the assay on HOP-92 NSCLC and in the assay on ACHN renal was more than 100 µM each time. For the same molecule, the TGI in the assay with NCI-H522 lung and in the assay on UACC-257 melanoma was more than 100 µM in each case.
Regarding `O=C1NC(=S)N/C1=C\c1ccc(Cl)cc1`, the TGI in the assay on HCC-2998 colon, in the assay with SK-OV-3 ovarian, in the assay with OVCAR-5 ovarian, in the assay on U251 CNS, in the assay with NCI-H23 lung and with MOLT-4 leukemia was more than 100 µM each time. In addition, the TGI with MDA-MB-435, with EKVX NSCLC, in the assay with UO-31 renal, in the assay on NCI/ADR-RES ovarian, in the assay with SF-539 CNS and in the assay on NCI-H522 lung was more than 100 µM in each case.
With `CC1OC(OC2C(OC(=O)[C@]34CCC(C)(C)CC3C3=CCC5[C@@]6(C)C[C@H](O)[C@H](OC7OC(COC8OC(CO)C(O)C(O)C8O)C(O)C(O)C7O)[C@@](C)(C(=O)O)C6CC[C@@]5(C)C3(C)CC4)OCC(O)C2O)C(O)C(O)C1OC1OCC(O)C(O)C1O` (some centres not stated), the TGI in the assay on HCC-2998 colon, in the assay on SK-OV-3 ovarian, in the assay on OVCAR-5 ovarian, in the assay with U251 CNS, in the assay on NCI-H23 lung and with K-562 leukemia was more than 100 µM each time. Also, the TGI in the assay on MOLT-4 leukemia, in the assay with EKVX NSCLC, in the assay on UO-31 renal, in the assay with HOP-92 NSCLC, with ACHN renal and in the assay on SF-539 CNS was more than 100 µM throughout. Besides, the TGI with NCI-H522 lung and with UACC-257 melanoma was more than 100 µM throughout.
On to `N#CC(C(=O)/C(=N/NC(=O)c1ccccc1O)C(C#N)c1ccc(Br)cc1)c1ccc(Br)cc1` (configuration not stated), for which the TGI in the assay on HCC-2998 colon was 24.7 µM; in the assay on SK-OV-3 ovarian, more than 100 µM; in the assay on OVCAR-5 ovarian, 29.1 µM; with U251 CNS it was 23.7 µM; in the assay with NCI-H23 lung it was 16.4 µM; in the assay with K-562 leukemia it was more than 100 µM. The TGI in the assay with MOLT-4 leukemia is 44 µM; with EKVX NSCLC, 30 µM; with UO-31 renal, 26.1 µM; in the assay with HOP-92 NSCLC it was 31.1 µM; with ACHN renal, 26.7 µM; with SF-539 CNS it was 25.3 µM. For the same molecule, the TGI with NCI-H522 lung came out at 27.7 µM; in the assay with UACC-257 melanoma it was 29.5 µM.
With `CN(C)CCCOc1ccc(/C=C2/CCC/C(=C/c3ccc(OCCCN(C)C)cc3)C2=O)cc1`, the TGI is 3.12 µM with HCC-2998 colon; 4.18 µM in the assay on SK-OV-3 ovarian; 0.644 µM in the assay on OVCAR-5 ovarian; 2.13 µM in the assay on U251 CNS; 3.63 µM with NCI-H23 lung; 1.24 µM in the assay on K-562 leukemia. In addition, the TGI amounted to 2.5 µM in the assay on MOLT-4 leukemia; 6.84 µM in the assay on EKVX NSCLC; 3.34 µM in the assay with UO-31 renal; 9.72 µM in the assay with HOP-92 NSCLC; 4.13 µM in the assay with ACHN renal; 3.02 µM in the assay with SF-539 CNS. Besides, the TGI with NCI-H522 lung turned out to be 3.75 µM; in the assay on UACC-257 melanoma it was 3.93 µM.
